Laboratory results taken from US20230365590A1, “BIPHENYL COMPOUND AS IMMUNOMODULATOR, PREPARATION METHOD THEREFOR AND APPLICATION THEREOF” (SHENZHEN CHIPSCREEN BIOSCIENCES CO., LTD., priority 2020, published 2023).

Assays:
[1] = Single-dosing pharmacokinetics test; type: in vivo, B-hPD-1/hPD-L1 female mice; conditions: female, B-hPD-1/hPD-L1 (humanized), mouse, po; humanized mice, single dose of 100 mg/kg by gavage, plasma
Experimental: 24 6-week old B-hPD-1/hPD-L1 female mice (purchased from Biocytogen (Jiangsu) Gene Biotechnology Co., Ltd.) were taken and the test compound was dissolved in a solvent containing 5% DMSO, 60% PEG400 and 35% purified water. The compound I-6 and three control molecules, Example 17, Compound 14 (INCB086550) and Example 180 were dosed. The compound was administered by gavage in a single dose of 100 mg/kg and blood was collected through fundus vein plexus after administration. The time points for blood collection were 15 min, 30 min, 1 h, 2 h, 4 h, 8 h, 24 h, 32 h and 48 h. About 0.1 mL of blood was collected and centrifuged in a centrifuge tube (heparin sodium anticoagulation) at 5000 rpm for 5 min to separate plasma, and then frozen at −20° C. for testing. After the plasma sample was treated, the concentration of the compound in the plasma was determined by liquid chromatography-mass spectrometry (LC-MS/MS). The pharmacokinetic parameters were calculated using Phoenix WinNonlin 7.0 based on the average blood concentration data at different time points.

[2] = Repeated-dosing pharmacokinetics test; type: in vivo, B-hPD-1/hPD-L1 humanized female mice; conditions: female, B-hPD-1/hPD-L1 (humanized), mouse, po; humanized mice, 50 mg/kg by gavage once a day for 12 days, plasma on day 12
Experimental: 24 6-week old B-hPD-1/hPD-L1 humanized female mice (purchased from Biocytogen (Jiangsu) Gene Biotechnology Co., Ltd.) were taken and the test compound was dissolved in a solvent containing 5% DMSO, 60% PEG400 and 35% purified water. The compound I-6 and three control molecules, Example 17, Compound 14 (INCB086550) and the aforementioned Example 180 were dosed. The compound was administered by gavage once a day in a dose of 50 mg/kg for 12 consecutive days, and blood was alternately collected through fundus vein plexus on day 12 of administration. The time points for blood collection were 15 min, 30 min, 1 h, 2 h, 4 h, 8 h, 24 h, 32 h and 48 h. About 0.1 mL of blood was collected and centrifuged in a centrifuge tube (heparin sodium for anticoagulation) at 5000 rpm for 5 min to separate plasma, and then frozen at −20° C. for testing. The concentration of the compound in the plasma was determined by liquid chromatography-mass spectrometry (LC-MS/MS). The pharmacokinetic parameters were calculated using Phoenix WinNonlin 7.0 based on the average blood concentration data at different time points.

[3] = clinical studies; cited from earlier work

Molecule	AUC(0-t) [1]	MRT [1]	half-life [1]	AUC(0-t) [2]	MRT [2]	half-life [2]	half time T1/2 [3]
Cc1c(Nc2nccc3cc(CN4CC[C@@H](O)C4)cnc23)cccc1-c1cccc(-c2nc3cc(CN4CC[C@@H](C(=O)O)C4)cc(C#N)c3o2)c1C [Compound 14 (INCB086550)]	19600 ng·h/mL	5.9 h	3.9 h	10600 ng·h/mL	5 h	3.7 h	–
Cn1c(C(=O)Nc2cccc(-c3cccc(NC(=O)c4nc5c(n4C)CCN(CCC46CCC(C(=O)O)(CC4)C6)C5)c3Cl)c2Cl)nc2c1CCN(CCC13CCC(C(=O)O)(CC1)C3)C2 [Example 17]	118000 ng·h/mL	4.2 h	3.8 h	58800 ng·h/mL	4.6 h	3.9 h	–
atezolizumab: PD-1/PD-L1 antibody drug	–	–	–	–	–	–	648 h
nivolumab: PD-1/PD-L1 antibody drug	–	–	–	–	–	–	605 h
pembrolizumab: PD-1/PD-L1 antibody drug	–	–	–	–	–	–	600 h
